Experimental data from patent publication US12605397B2, “Deoxy-cytidine or uridine derivatives for use in cancer therapies” (HEMISPHERIAN AS, priority 2019, dated 2026).

Assays:
U2OS cells = test: Survival assay (MTT), U2OS; type: cell-based, human; settings: Homo sapiens
Method: (§1) Cells were passed between 70 and 90% confluence.
(§2) Cells were incubated with the drugs for 72 hours.

G14 cells = test: Survival assay (MTT), G14; type: cell-based, human; settings: Homo sapiens, G14, Glioma, Grade IV, 72 hours
Method: (§3) Primary glioma neural stem (GNS) cells (G7, G14, G144, G166) were cultured on poly-D-lysine (Merck Millipore, Cat. Nr. A-003-E) and laminin (R&D Systems, Cat.Nr. 3446-005-01) coated plates in neural stem cell medium (50% DMEM-F12 (Thermofisher, Cat. Nr. 21041025), 50% neurobasal medium (Thermofisher, Cat. Nr. 10888-022), N2 (Life Technologies, Cat. Nr. A-003-E) and B27 supplements (Life Technologies, Cat.Nr. 12587010), 1 mM sodium pyruvate (Life Technologies, Cat.Nr. 11360-039), 2 mM glutamax (Life Technologies, Cat. Nr. 35050038), 1 mM HEPES (Fisher Scientific, Cat. Nr. BP299-1), 0.1 mM β-mercaptoethanol (Life Technologies, Cat. Nr. 31350010), 1× nonessential amino acids (Life Technologies, Cat. Nr. 11140-035), 0.006% bovine serum albumin (Sigma, Cat. Nr. A8577-10ML), 4 μg/ml heparin (Sigma, Cat. Nr. H3149-25KU), 100 U/ml penicillin, 100 μg/ml streptomycin, 20 ng/ml hEGF (R&D Systems, Cat. Nr. 236-EG-200), 10 ng/ml bFGF (Peprotech, Cat. Nr. 100-18B).
as §2

NCI-N87 cells = test: Survival assay (MTT), NCI-N87; type: cell-based, human; settings: Homo sapiens
Method: as §1, §2

G166 cells = test: Survival assay (MTT), G166; type: cell-based, human; settings: Homo sapiens, G166, Glioma, Grade IV, 72 hours
Method: as §3, §2

[1] = system: Glioma, Grade IV cell lines; test: Survival assay, panel of 12 patient derived Glioma, Grade IV cell lines; type: cell-based, human; settings: of 12 cell lines of Table 2
Method: as §3, §1, §2
Due to lack of activity in previous assays, 5-carboxyl-2′-deoxycytidine was not included in this more rigorous analysis.

A-498 cells = test: Survival assay (MTT), A-498; type: cell-based, human; settings: Homo sapiens
Method: as §1, §2

G144 cells = test: Survival assay (MTT), G144; type: cell-based, human; settings: Homo sapiens, G144, Glioma, Grade IV, 72 hours
Method: as §3, §2

HeLa cells = test: Survival assay (MTT), HeLa; settings: for IC50: Homo sapiens, HeLa; for cytotoxicity to HeLa cells (cell survival): three days of treatment, MTT, up to 100 μM
Method: Cell lines not mentioned above were grown in DMEM (Sigma, Cat.Nr. D6429) supplemented with 10% Fetal Bovine Serum and 100 U/ml penicillin 100 U/ml streptomycin. All cells were maintained in a 5% CO2, humidified, water-jacketed incubator at 37° C. Cells were passed between 70 and 90% confluence.
In a 96-well plate, 4000 cells in 100 μl of corresponding medium were seeded. The following day, drugs, diluted in DMSO, were added in 8 concentrations in triplicate. Drugs were added as a 4-fold dilution series starting from 100 μM. Cells were incubated with the drugs for 72 hours. Cell proliferation was assessed by MTT assay according to the manufacturer's protocol (ATCC, Cat. Nr. 30-1010K). Cell survival was normalized to the survival of cells treated with DMSO only. Experiment was performed three times, data represent mean of nine wells±SEM.
HeLa cells, grown as described above (Materials and Methods), were treated with 5-hydroxymethyl-2′-deoxycytidine and 5-formyl-2′-deoxycytidine. After three days of treatment with these compounds, cell survival was assessed as described above (Materials and Methods).
After three days of treatment with these compounds at a concentration of 100, 25, 6.25, 1.56, 0.39, 0.1, 0.02, or 0.006 μM, cell survival was assessed by MTT assay as described above (Materials and Methods).

U87-MG = test: Glioblastoma Multiforme mouse xenograft model; type: in vivo, mice; settings: five doses; for tumour volume: over all time points
Method: Standard agent, Temozolomide, was provided by Oslo University Hospital in powder form and was formulated fresh prior to each dose by first adding appropriate volume of DMSO to pre-weighed compound, then adding appropriate volumes of Solutol (RTM) and PBS (5% DMSO/5% Solutol (RTM)/90% PBS). […] Standard agent, Temozolomide, was administered at a dose volume of 10 mL/kg.
The human brain malignant glioma cell line, U87-MG (ATCC HTB-14, epithelial glioblastoma), was obtained from American Type Culture Collection (ATCC). The cells were cultured in Minimum essential medium containing 5% fetal bovine serum (FBS) at 37° C., with 5% CO2 in an incubator.
Female (nu/nu) nude mice aged 6-7 weeks obtained from BioLasco Taiwan (under Charles River Laboratories Licensee) were used. The animals were housed in individually ventilated cages (IVC, 36 Mini Isolator system). The allocation for 5 animals was 27×20×14 in cm. All animals were maintained in a hygienic environment under controlled temperature (20-24° C.) and humidity (30%-70%) with 12-hour light/dark cycle.
Viable U87-MG (ATCC HTB-14) cells were subcutaneously (SC) implanted (5×10^6 cells/mouse in PBS at 0.2 mL/mouse) into the right flank of female nu/nu mice. When group mean tumor volumes reached approximately 129 mm^3 to 131 mm^3, tumor implanted mice were divided into four treatment groups, each group containing eight animals, and dose administrations were initiated (denoted as Day 1).
5-hydroxymethyl-2′-deoxycytidine, 5-formyl-2′-deoxycytidine at 2000 mg/kg and corresponding vehicle (5% DMSO/5% Solutol (RTM)/90% PBS) were administered intraperitoneally (IP) once every three days for a total of five administrations. Temozolomide at 40 mg/kg was administered orally (PO) once daily for five total administrations.
The tumor volume, body weight, mortality, and signs of overt toxicity were monitored and recorded twice weekly for 29 days. Tumor volume (mm^3) was estimated according to the ellipsoid formula as: length×(width)^2×0.5. Tumor growth inhibition (T/C) was calculated by the following formula:
[formula] • Cn: Tumor weight measured on Day n in the control group • Tn: Tumor weight measured on Day n in the treated group • % T/C value≤42% was considered significant antitumor activity (#). Percent tumor growth inhibition (TGI) was also calculated by the following formula:
[formula] • % TGI value≥58% was considered significant antitumor activity (#).
Two-way ANOVA (RTM) followed by Bonferroni test was also used to ascertain the statistically significant difference compared to the negative control group during study; Day 1 through to Day 29. Differences are considered significant at p<0.05 (*).
5-formyl-2′deoxycytidine and 5-hydroxymethyl-2′-deoxycytidine were evaluated in a Glioblastoma Multiforme mouse xenograft model as described above (Materials and Methods). U87-MG cells were injected subcutaneously into the flank of nude mice. Tumours were allowed to form as described above (Materials and Methods). After the tumours reached between 129 mm^3 and 131 mm^3 animals were divided into 4 groups—two treatment groups, a negative control group and a positive control group. The two treatment groups were 5-formyl-2′-deoxycytidine and 5-hydroxymethyl-2′-deoxycytidine. […]
The tumour volume (FIG. 1C), body weight (FIG. 1D), mortality, and signs of overt toxicity were monitored and recorded twice weekly for 29 days. […]

G7 cells = test: Survival assay (MTT), G7; type: cell-based, human; settings: Homo sapiens, G7, Glioma, Grade IV, 72 hours
Method: as §3, §2

[2] = Bone Osteoscarcoma, 72 hours, MTT
[3] = NCI-N87, Gastric Carcinoma, 72 hours, MTT
[4] = NCI-N87, Tables 6 and 7, unit inferred
[5] = A498, 72 h, A-498, Kidney Carcinoma, 72 hours, MTT
[6] = A498, A-498, Tables 6 and 7, unit inferred
[7] = 2000 mg/kg IP every three days, end of study (Day 29)

SMILES	IC50 (U2OS cells; [2]) [µM]	IC50 (U2OS cells; Tables 6 and 7, unit inferred) [µM]	IC50 (G14 cells) [µM]	IC50 (NCI-N87 cells; [3]) [µM]	IC50 (NCI-N87 cells; [4]) [µM]	IC50 (G166 cells) [µM]	number of Glioma, Grade IV cell lines killed [1]	IC50 (A-498 cells; [5]) [µM]	IC50 (A-498 cells; [6]) [µM]	IC50 (G144 cells) [µM]	IC50 (HeLa cells) [µM]	IC50 (HeLa cells; 72 h) [µM]	cytotoxicity to HeLa cells (cell survival) (HeLa cells)	tumour growth inhibition (TGI) (U87-MG; [7]) [%]	tumour volume (U87-MG; 2000 mg/kg IP every three days)	IC50 (G7 cells) [µM]	tumour growth inhibition (TGI) (U87-MG; positive control, 40 mg/kg PO once daily, end of study) [%]
Nc1nc(=O)n([C@H]2C[C@H](O)[C@@H](CO)O2)cc1CO [2d5hmC, 5-hydroxymethyl-2′-deoxycytidine]	> 25	≥ 25	25.4	> 25	≥ 25	> 100	6 of 12	> 25	≥ 25	> 100	≥ 25	> 25	did not differ from DMSO treated cells	93	marked decrease in tumour volume	11.9	
Cn1nnc2c(C(N)=O)ncn2c1=O [Temozolomide, 4-methyl-5-oxo-2,3,4,6,8-pentazabicyclo[4.3.0]nona-2,7,9-triene-9-carboxamide, reference compound]	> 25		6.02	> 25		> 100	5 of 12	> 25		14.7		> 25				6.18	94
Nc1nc(=O)n([C@H]2C[C@H](O)[C@@H](CO)O2)cc1C=O [2d5fC, 5-formyl-2′-deoxycytidine]	8.69	8.69	> 100	0.806	0.806	> 100	5 of 12	> 25	≥ 25	> 100	0.76	0.76	markedly greater cytotoxic effect	83	marked decrease in tumour volume	19.2	
